In patent US20190125704A1, “PAIN RELIEF COMPOSITION” (priority 2016, published 2019):
Values joined by “and” are separate entries in the source; they are usually repeats but may differ in a detail not shown here. Equal values may be shown once.

Test system: TRPV ion channels
Test: TRPV ion channel activity: 2-APB-induced intracellular calcium change in f11 nociceptive sensory cells (Fluo-4-AM)
Type: cell-based, white rats
Conditions: f11 cell lines pre-treated with the compound for 24 hours, then 2-APB
Protocol: To investigate the activity of the compound of Formula 1 isolated in Example 1, pain relief effects were evaluated. The pain relief was confirmed by identifying intracellular calcium levels and signaling pathways.
After f11 nociceptive sensory cell lines in white rats incubated with the compound of Formula 1 to 50% confluence for 24 hours were pretreated, TRPV ion channel activities were measured. The f11 cell lines were treated with 2-APB (2-aminoethoxydiphenyl borate) as a pre-activator for TRPV ion channels, and intracellular calcium changes, which are triggered in response to the 2-APB treatment, were evaluated using a Fluo-4-AM fluorescent dye on a real time basis.

CC(C)c1ccc2c(c1)C=C[C@H]1[C@](C)(C(=O)O)CCC[C@]21C [Formula 1, abieta-6,8,11,13-tetraaen-18-oic acid]
increase in the intracellular calcium level induced by 2-APB (Fluo-4-AM fluorescent dye, real time): strongly inhibited | intracellular calcium level after 2-APB treatment (tabulated data of FIG. 8, individual values) (Fluo-4-AM, compared with untreated control group): 1.1293 and 1.1714 and 1.1656 and 1.434 and 1.8663 and 1.3893 and 1.1031 and 1.2503 and 1.4131 and 1.3008 and 1.2251 and 1.1536 and 1.125 and 1.1572
